The values that follow come from patent US6218438A, “Copolymer compositions for treating viral infections” (Supratek Pharma, Inc., priority 1999, dated 2001).

The target in one data set is HIV IN (integrase) (Human immunodeficiency virus type 1 group M subtype B, UniProt P03366). Briefly: Inhibition of DNA-binding activity of HIV integrase. The data set is classed as biochemical. As to conditions: in vitro.
Another data set has as its target HIV-1 RT (Human immunodeficiency virus type 1 BH10, UniProt P03366). The note with it: RDDP, RNase H, and DDDP; Borkow et al. 1997; cited from earlier work.
Data set [1] addresses T1, HIV-1 reverse transcriptase (p51/p66 RT), RNAse H activity (Human immunodeficiency virus type 1 group M subtype B, UniProt P03366).
T1 construct: 10 ng of p51/p66 heterodimeric RT per assay were used
Briefly: Inhibition of RNAse H activity of RT. Type of data set: biochemical. On the procedure: (§1) BBNH and Fe(III)-BBNH complex at various concentrations were examined for the ability to inhibit RNA dependent and DNA dependent DNA polymerase activities as well as RNAse H activity of HIV-1 reverse transcriptase (RT RDDP, RT DDDP, and RT RNAse H, respectively). To analyze RT RDDP and RT DDDP the following reaction mixture (100 μl total volume) was used: 50 mM Tris-HCl (pH 7.8), 60 mM KCl, 10 mM MgCl2, 10 ng of p51/p66 RT, 0.1-0.5 units of template/primer, and 0.5-25 μM [^3 H]dNTP. Aliquots of the test compounds dissolved in DMSO were added to the reaction mixtures, incubated for 10-20 min. at 37° C. and than quenched with 500 μl of cold 20 mM sodium pyrophosphate in 10% dichloroacetic acid. After 10 min. on ice, the samples were filtered on Whatman 934-AH glass fiber filters and washed with 10% dichloroacetic acid and ethanol, and the radioactivity was determined by liquid scintillation analysis. To analyze RT RNAse H the following reaction mixture (50 μl total volume) was used: 5OmM Tris-HCl (pH 8.0), 60 mM KCl, 8 mM MgCl2, and variable amounts of ([^3 H]rG)-poly(dC). Generally, 10 ng of p51/p66 heterodimeric RT per assay were used. Aliquots of the test compounds dissolved in DMSO were added to the reaction mixtures, incubated for 20 min. at 37° C. and than quenched by placing the tubes on ice followed by the addition of 100 μl of cold 7% perchloric acid. After 10 min. on ice, the samples were centrifuged at 12,000 g for 15 min. 100 μl of the supernatants were carefully removed, and the radioactivity was determined by liquid scintillation analysis.

A further data set has as its system cells. Briefly: Cytotoxicity (general statement). The data set is classed as cell-based.
Data set [2] concerns the target T2, HIV-1 reverse transcriptase (p51/p66 RT), DDDP activity (Human immunodeficiency virus type 1 group M subtype B, UniProt P03366).
T2 construct: 10 ng of p51/p66 heterodimeric RT per assay were used
Briefly: Inhibition of DNA dependent DNA polymerase activity of RT (RT DDDP). The data set is classed as biochemical. On the procedure: as §1

Data set [3] is described as follows: Cytotoxic activity against uninfected MT2 cells (XTT assay). The data set is classed as cell-based, human. As to conditions: human, 4 days at 37° C., in DMSO. On the procedure: BBNH and Fe(III)-BBNH complex at various concentrations were examined for cytotoxic activity against uninfected MT2 cells. Aliquots of a solution of the compounds in dimethyl sulfoxide were added to the MT2 cells (2×10^5 cells/ml) in RPMI medium containing 10% fetal bovine serum to provide defined final concentrations of test compound. The cells and test compounds were cultured for 4 days at 37° C., in the presence of 5% CO2 and then cytotoxic effect of the compounds was analyzed by using the standard XTT assay. The CC50 calculated from the results were 10±0.5 μM for BBNH and more than 1000 μM for Fe(III)-BBNH.
A general note: Formazan colour is commonly taken as a measure of viable cells.

The target of data set [4] is T3, HIV-1 reverse transcriptase (p51/p66 RT), RDDP activity (Human immunodeficiency virus type 1 group M subtype B, UniProt P03366).
T3 construct: 10 ng of p51/p66 heterodimeric RT per assay were used
Briefly: Inhibition of RNA dependent DNA polymerase activity of RT (RT RDDP). Type of data set: biochemical. On the procedure:
as §1

Data set [5] relates to HIV-1 infection of MT2 cells. Briefly: Inhibition of HIV-1 infection of uninfected MT2 cells. Type of data set: cell-based. As to conditions: Human immunodeficiency virus 1, compound in DMSO, 30 min before HIV. As for the experimental part: BBNH and Fe(III)-BBNH complex at various concentrations were examined for the ability to inhibit HIV-1 infection of uninfected MT2 cells. Aliquots of a solution of the compounds in dimethyl sulfoxide were added to uninfected MT2 cells (2×10^5 cells/ml) in RPMI medium containing 10% fetal bovine serum to provide defined final concentrations of test compound. The cells and test compounds were incubated for 30 minutes at 37° C., then inoculated with a suspension of HIV virions. The cells, test compounds and HIV were incubated for 18 h at 37° C., then the cells were collected by centrifugation, washed, and resuspended in RPMI medium containing 10% fetal bovine serum and containing the same concentration of test compound as initially employed. The cells were then cultured at 37° C. (with culture medium changes as required). HIV infection was assessed by microscopic examination of HIV-induced cytopathicity (syncytium) and/or by analysis of HIV p24 antigen levels in the culture supernatants.

Data set [6] relates to HIV-1 replication in cells. The note with it: Borkow et al. 1997; cited from earlier work.

SMILES strings stand for the structures.

In general, IC50 refers to the point on the concentration scale where inhibition reaches its midpoint. For orientation: CC50 means the concentration at which the toxic effect on the cells reaches its halfway point. For `CC(C)(C)c1ccc(C(=O)NN=Cc2c(O)ccc3ccccc23)cc1` [BBNH, N-(4-t-butylbenzoyl)-2-hydroxy-1-naphthaldehyde hydrazone, reference compound], the concentration for half-maximal inhibition (IC50) at HIV IN (integrase) was about 5 µM; in data set [1] (10 min. preincubation), 3.5 ± 0.8 µM; in data set [1] (No preincubation) it was over 50 µM; in data set [2], 12.5 ± 5 µM; in data set [4], 1.9 ± 0.1 µM; in [5] it was 1.5 ± 0.5 µM. In addition, the “preincubation needed for maximal inhibition of IN” value at HIV IN (integrase) (preincubation of the enzyme with BBNH) was 10 to 15 min. Besides, the “inhibition of all three enzymatic activities of HIV-1 RT in vitro” value at HIV-1 RT is given as “good inhibitor of all three enzymatic activities of HIV-1 RT in vitro”. For the same molecule, the “preincubation needed for maximal inhibition of RT RNase H” value in [1] (in vitro, preincubation of the enzyme with BBNH) lay within 10 to 15 min. Also, in the data set with cells, the cytotoxicity entry is reported as “cytotoxic”. Further, in data set [3], it took 10 ± 0.5 µM to reach half-maximal cytotoxicity (CC50 at 96 h). Moreover, the “inhibition of replication of HIV-1 in infected cells” value in data set [6] was “inhibits replication of HIV-1 in infected cells”.
